From PMC11171218, “N-Benzylated 5-Hydroxybenzothiophene-2-carboxamides as Multi-Targeted Clk/Dyrk Inhibitors and Potential Anticancer Agents” (Cancers, 2024) come the findings set out here.

The target in one series is T1, GSG2 (Haspin) (Homo sapiens, UniProt Q8TF76).
T1 construct: purchased Thermo Fisher Scientific, Madison, WI, USA (assay run there)
T1 sequence (Q8TF76 1-798): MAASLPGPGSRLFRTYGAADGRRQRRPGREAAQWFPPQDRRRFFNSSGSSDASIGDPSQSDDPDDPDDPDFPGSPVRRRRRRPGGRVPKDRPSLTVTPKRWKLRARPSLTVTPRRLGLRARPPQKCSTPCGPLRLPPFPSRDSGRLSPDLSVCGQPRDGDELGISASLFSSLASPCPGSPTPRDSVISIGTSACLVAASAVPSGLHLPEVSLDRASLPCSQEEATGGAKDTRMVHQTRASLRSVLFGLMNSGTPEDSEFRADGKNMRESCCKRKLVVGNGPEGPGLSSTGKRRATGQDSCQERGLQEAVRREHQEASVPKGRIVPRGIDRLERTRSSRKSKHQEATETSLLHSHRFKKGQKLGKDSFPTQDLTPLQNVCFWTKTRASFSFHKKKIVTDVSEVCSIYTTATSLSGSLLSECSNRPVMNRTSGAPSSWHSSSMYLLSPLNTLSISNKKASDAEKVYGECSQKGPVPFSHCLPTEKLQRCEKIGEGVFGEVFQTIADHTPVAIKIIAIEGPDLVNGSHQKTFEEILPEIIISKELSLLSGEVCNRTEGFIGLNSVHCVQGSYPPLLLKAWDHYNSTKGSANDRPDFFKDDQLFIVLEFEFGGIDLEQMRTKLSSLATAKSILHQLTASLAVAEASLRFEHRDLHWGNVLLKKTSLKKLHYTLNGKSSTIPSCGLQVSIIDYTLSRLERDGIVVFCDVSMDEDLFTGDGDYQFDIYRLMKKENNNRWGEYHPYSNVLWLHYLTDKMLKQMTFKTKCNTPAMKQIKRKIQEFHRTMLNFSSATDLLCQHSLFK
Description: Adapta universal kinase assay, Haspin. Format: biochemical. The note with it: for inhibition at 1 µM: 1 µM compound, screening by Thermo Fisher Scientific; for IC50: ATP concentration equivalent to Km (25 μM ATP). The procedure: 3.2 The Adapta universal kinase assay for screening and IC 50 determination against haspin.
The haspin kinase assay was done at Thermo Fisher Scientific, Madison, WI, USA using a fluorescence-based immunoassay known as ‘The Adapta Universal Kinase Assay’, which detects the ADP produced by kinases utilizing the TR-FRET technology. The final 10 μL kinase reaction consists of 0.25 - 1 ng GSG2 (Haspin) and 100 μM of the substrate (Histone H3 (1-20) peptide) in […]
μM ATP. After an incubation time of 1 h at RT, 5 μL of a detection mix was added.
To determine the half maximal inhibitory concentration (IC 50), the assays were performed in duplicate in the absence or presence of increasing doses of the tested compounds.

Series [1] concerns T24 cells. Description: CCK-8 cell viability, T24. In kind it is cell-based. The note with it: Homo sapiens, T-24, 72 h; for inhibition at 20 µM: CCK-8, mean ± S.E.M. (n = 3), read-out: T24 % Inh. at μM; for IC50: CCK-8, 50% inhibition of viability. The method, then: (§1) All cells were purchased from Bioresource Collection and Research Center (Hsinchu, Taiwan) and cultured in corresponding media supplemented with 10% fetal bovine serum, 1 × Antibiotic-Antimycotic at 37 °C in a humidified incubator with 5% CO2. […] T24 cells were cultured in McCoy’s 5a media. IEC-6 cells were cultured in DMEM media supplemented with 5% fetal bovine serum, 1 × Antibiotic–Antimycotic, and 0.1 unit/mL insulin.
(§2) Cells were incubated with the Cell Counting Kit-8 (CCK-8) reagent (TargetMol, Boston, MA, USA) at 37 °C for 2 h. The cell viability was determined by spectrophotometer at 450 nm.

The nature of series [2]: Cell viability in normal cells, IEC-6. As to conditions: rat, IEC-6 rat intestine epithelial cells (normal cells); for viability at 20 µM: mean (n = 3); for IC50: 50% inhibition. In kind it is cell-based. The procedure:
as §1, §2

Series [3] can be described thus: Cell viability in normal cells, HaCaT. In kind it is cell-based. As to conditions: human, HaCaT normal human keratinocytes; for viability at 20 µM: mean (n = 3); for IC50: 50% inhibition. The method, then: as §1, §2
Series [4] has as its system T24 cells. Description: Cell cycle assay (PI staining, flow cytometry). As to conditions: 30–50 µM, 24 h. Format: cell-based, human. The method, then: Cells were fixed with 75% ethanol and then stained with 50 μg/mL propidium iodide (PI; Cat# P4170, Sigma-Aldrich, St. Louis, MO, USA) at room temperature for 1 h. Cell cycle was analyzed by flow cytometry.
Figure 2 Analysis of cell cycle progression upon treatment with compounds 12 and 17. T24 cells were treated with DMSO (0.1%), 12 (30–50 µM), or 17 (30–50 µM) for 24 h. Cell cycle was examined by propidium iodide (PI) staining and flow cytometry. All data are expressed as the mean ± S.E.M. (n = 3).
In general terms: A flow cytometer gives signals particle by particle.

The subject of another series is Bax. Description: Western blot, Bax in T24 cells. In kind it is cell-based, human. As to conditions: 10–50 μM, 24 h. The text has this: (§3) Cell lysates were sequentially suspended in commercial RIPA Buffer (pH 7.4; Cat# RB4475, Bio Basic, Markham, Ontario, Canada) containing Protease Inhibitor Cocktail and PhosSTOP (Merck, Darmstadt, Germany), boiled in sodium dodecyl sulphate (SDS) sample buffer, separated by SDS-polyacrylamide gel electrophoresis (PAGE), and electrophoresed onto a PVDF membrane. Antibodies used in this study were Bcl-2 (Cat#A19693, RRID: AB_2862738) and Bax (Cat# A0207, RRID: AB_2757021) from ABclonal (Boston, MA, USA); cleaved caspase-3 (Cat# 9662, RRID: AB_331439) and GAPDH (Cat# 8884, RRID:AB_11129865) from Cell Signaling Technology (Beverly, MA, USA). The labeled signals were determined using HRP-conjugated secondary antibodies and the Bio-rad ChemiDoc™ MP Imaging System (Berkeley, CA, USA).
(§4) Figure 4 Examining the effect of 12 and 17 on proapoptotic and antiapoptotic pathways. T24 cells were treated with DMSO (0.1%), 12 (30–50 µM), or 17 (30–50 µM) for 24 h. Expression levels of cleaved caspase-3, Bax, Bcl-2, and GAPDH were analyzed by Western blot by corresponding antibodies. The quantitation of the cleaved caspase-3/GAPDH, Bax/GAPDH, and Bcl-2/GAPDH ratio are shown. All data are expressed as the mean ± S.E.M. (n = 3). * p < 0.05, ** p < 0.01, *** p < 0.001 compared with the DMSO group.
A general note: In western blotting, separated proteins are transferred to a membrane and probed.

For another series, the system named is Bcl-2. Description: Western blot, Bcl-2 in T24 cells. In kind it is cell-based, human. The note with it: for Decrease in the antiapoptotic marker Bcl-2: 50 μM; for Expression of antiapoptotic protein Bcl-2: 10–50 μM, 24 h, Western blot.
From the text: as §3, §4

What is called IC50 is the concentration that gives 50% inhibition. Turning to `O=C(NCc1cccc(Cl)c1)c1cc2cc(O)ccc2s1` [Compound 3, N-(3-Chlorobenzyl)-5-hydroxybenzo[b]thiophene-2-carboxamide], at GSG2 (Haspin), the inhibition at 1 µM worked out at 54%. Further, in the series with T24 cells [1], the inhibition at 20 µM came out at 68.6 ± 3.95% and the IC50 was 14 µM.
A word on the viability: it is a read-out of living cells in per cent, often relative to untreated cells. A lower viability goes with a greater loss of cells. As to `COc1cccc(CNC(=O)c2cc3cc(O)ccc3s2)c1` [Compound 12, 5-Hydroxy-N-(3-methoxybenzyl)benzo[b]thiophene-2-carboxamide], at GSG2 (Haspin), the inhibition at 1 µM stood at 85% and the IC50 was found to be 0.167 µM. In addition, in the series on T24 cells [1], the inhibition at 20 µM was found to be 100% and 6 µM corresponded to half-maximal inhibition (IC50). In series [2], this compound registered a viability at 20 µM of 96% and an IC50 above 20 µM. In series [3], this compound registered a viability at 20 µM of 67.6% and an IC50 above 20 µM. The “Effect on cell cycle progression” value with T24 cells [4] is given as “much weaker than those of compound 17”. For the same compound, the “Level of Bax” value with Bax was “increased the proapoptotic levels of cleaved caspase-3 and Bax”. Also, in the series with Bcl-2, the “Decrease in the antiapoptotic marker Bcl-2” value is on record as “approximately 0.5 fold” and the “Expression of antiapoptotic protein Bcl-2” value was “decreased the expression of the antiapoptotic protein, Bcl-2”.
Regarding `COc1ccccc1CNC(=O)c1cc2cc(O)ccc2s1` [Compound 11, 5-Hydroxy-N-(2-methoxybenzyl)benzo[b]thiophene-2-carboxamide], the inhibition at 1 µM at GSG2 (Haspin) is 46%. The inhibition at 20 µM in the series with T24 cells [1] is 55.3 ± 3.3%.
For the compound `O=C(NCc1cccc(F)c1)c1cc2cc(O)ccc2s1` [Compound 6, N-(3-Fluorobenzyl)-5-hydroxybenzo[b]thiophene-2-carboxamide], on GSG2 (Haspin), the inhibition at 1 µM was 83% and the IC50 was 0.207 µM. The inhibition at 20 µM with T24 cells [1] was 49.3 ± 6.04%.
In the case of `O=C(NCc1cc(F)cc(F)c1)c1cc2cc(O)ccc2s1` [Compound 17, N-(3,5-Difluorobenzyl)-5-hydroxybenzo[b]thiophene-2-carboxamide], at GSG2 (Haspin), the inhibition at 1 µM was 80% and the IC50 is 0.256 µM. Moreover, in the series with T24 cells [1], the inhibition at 20 µM is 59.9 ± 2.05% and half-maximal inhibition (IC50) required 14.9 µM. In series [2], this compound came in with a viability at 20 µM of 76.8% and an IC50 above 20 µM. Moreover, in series [3], the viability at 20 µM amounted to 64.9% and the IC50 is above 20 µM. Moreover, the “Effect on cell cycle progression” value in the series with T24 cells [4] is “retain the cells in the G2/M phase”. The “Level of Bax” value with Bax is “increased the proapoptotic levels of cleaved caspase-3 and Bax”. For the same compound, in the series on Bcl-2, the “Decrease in the antiapoptotic marker Bcl-2” value was “approximately 0.5 fold” and the “Expression of antiapoptotic protein Bcl-2” value was “decreased the expression of the antiapoptotic protein, Bcl-2”.
